Data taken from patent US8242089B2, “Sphingolipids polyalkylamine conjugates for use in transfection” (Yissum Research Development Company of the Hebrew …, priority 2003, dated 2012).

System: NIH 3T3 cells
Assay: Methylene blue toxicity assay on NIH 3T3 cells
Assay type: cell-based
Conditions: amounts used in transfection, free assemblies or lipoplexes with luciferase plasmid, lipid/DNA charge ratios 1-16, chloride form
Experimental: Cytotoxicity was tested by the methylene blue (MB) staining assay [Elliott W M and Auersperg N. Biotech Histochem 68:29-35 (1993)]. In general, a known number of exponentially growing cells in 200 μL of medium were plated in 96-microwell, flat-bottomed plates. For each of the lipoplexes tested, 3 wells were used. Following 24 h of incubation in culture, 20 μL of different concentrations of various lipoplexes were added to each well containing untreated cells. Normal saline was added to the controls. Cells were exposed to lipoplex for 24 h. At the end of exposure the treated cells, as well as parallel control cells were washed and fixed by adding 50 μL of 2.5% glutaraldehyde to each well for 15 min. Fixed cells were rinsed 10 times with deionized water and once with borate buffer (0.1 M, pH 8.5), dried, and stained with MB (100 μL of 1% solution in 0.1 M borate buffer, pH 8.5) for 1 h at r. t. Stained cells were rinsed thoroughly with de-ionized water to remove any non-cell-bound dye and then dried. The MB bound to the fixed cells was extracted by incubation at 37° C. with 200 μL of 0.1 N HCl for 1 h, and the net optical density of the dye in each well was determined by a plate spectrophotometer (Labsystems Multyskan Bichromatic, Finland) at 620 nm.

CCCCCCCCCCCCC/C=C/[C@@H](O)[C@H](COC(=O)NCCCNCCCCNCCCN)NC(=O)CCCCCCCCCCCCCCC [CCS, N-palmitoyl D-erythro sphingosyl carbamoyl-spermine]
toxicity (living cells): non toxic
